Source: patent US20110280831A1, “COMBINATIONS COMPRISING METHOTREXATE AND DHODH INHIBITORS” (priority 2009, published 2011)
Entries after “also recorded” stand apart in the source; their conditions may differ.

Legend:
Swiss mice = experiment: Acute hepatotoxicity assay, plasma liver markers; assay type: in vivo; settings: for ALT plasma level / AST plasma level / BIL (total bilirubin) plasma level: Swiss mice, single 100 mg/kg intraperitoneal, 24 hours later
Protocol: Acute hepatotoxicity assays were performed in Swiss mice. Animals received a single administration of either vehicle, or 100 mg/kg of teriflunomide or a compound of the present invention (compounds from the list indicated previously) by intraperitoneal route. Twenty-four hours later, animals were sacrificed and the levels of liver markers AST (aspartate aminotransferase), ALT (alanine aminotransferase) and BIL (total bilirubin) in plasma were determined.

[1] = tested on: rat adjuvant-induced arthritis model (AIA); experiment: Efficacy assay in rat adjuvant-induced arthritis model (AIA), curative protocol; assay type: in vivo, Wistar rats; settings: arthritic rats, oral once a day for 10 days, compound 20 10 mg/Kg/day, MTX 0.05 mg/Kg/day, AUC days 10-21 versus vehicle, mean and SEM
Protocol: The effect of DHODH inhibitor compounds were tested in combination with methotrexate (0.05 mg/Kg/day) in the rat adjuvant-induced arthritis model (AIA) in animals with established disease (curative protocol). Briefly, Complete Freund Adjuvant (CFA) was injected into the left hind footpad of Wistar rats, and 10 days later the swelling of the two rear paws was measured with a plethysnnometer. […] Compounds were administered orally once a day for 10 days and paw volumes were determined every two days up to day 21.
The percentage of inhibition for every group was calculated versus values from vehicle-treated rats. The table below depicts the mean and SEM of one experiment using 6 animals per group.

human DHODH = human DHODH (Homo sapiens, UniProt Q02127); experiment: Inhibition of human DHODH activity assay (DCIP chromogen reduction); assay type: biochemical; settings: enzyme extracts, 10 min at room temperature, absorbance at 600 nm, duplicate; read-out: hDHODH IC50
Chain of human DHODH (Q02127 whole entry): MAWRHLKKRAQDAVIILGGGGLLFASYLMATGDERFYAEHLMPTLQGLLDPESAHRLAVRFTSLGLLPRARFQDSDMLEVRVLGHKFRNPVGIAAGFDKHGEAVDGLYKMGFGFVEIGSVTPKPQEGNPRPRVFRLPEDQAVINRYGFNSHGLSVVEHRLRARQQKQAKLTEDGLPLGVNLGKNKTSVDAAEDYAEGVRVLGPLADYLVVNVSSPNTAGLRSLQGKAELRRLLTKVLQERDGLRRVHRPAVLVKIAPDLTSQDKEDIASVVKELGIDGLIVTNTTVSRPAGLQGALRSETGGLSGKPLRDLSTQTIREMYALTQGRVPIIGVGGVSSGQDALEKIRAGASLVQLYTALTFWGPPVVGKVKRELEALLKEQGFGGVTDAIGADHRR
Protocol: DHODH activity and its inhibition were studied using a chromogen reduction assay with DCIP (2,6-dichlorophenol-indophenol).
Enzyme extracts (8 μl, ˜1.5 μg of human protein) were incubated in 96-well plates. The assay mixture (200 μl) contained 200 μM CoQD, 100 μM L-DHO, 120 μM DCIP in the assay buffer (100 mM HEPES pH 8.0, 150 mM NaCl, 10% Glicerol, 0.05% Triton X-100) and 2 μl of test compound. The compounds were dissolved in DMSO at a stock concentration of 1 mM, and tested at different concentrations varying from 10 μM to 1 pM to calculate an IC50 (concentration of inhibitor required for 50% of inhibition).
The reaction was initiated by adding the enzyme and then incubated for 10 min at room temperature before measuring DCIP reduction by counting a decrease in absorbance at 600 nm using standard instrumentation (Spectramax).
All reactions were carried out in duplicate and graphs, determining IC50 values for each compound, were plotted using the ABase software.

SMILES	ALT plasma level (Swiss mice)	AST plasma level (Swiss mice)	BIL (total bilirubin) plasma level (Swiss mice)	% inhibition of the inflammation (AUC) Right paw [1]	IC50 (human DHODH)	change in plasma liver markers (AST, ALT, BIL) compared to vehicle-treated mice, in words (Swiss mice; mice, intraperitoneal route, 100 mg/kg)
O=C(O)c1cc(C2CC2)ccc1Nc1cnc(-c2c(F)cccc2F)nc1 [Compound 20, 5-cyclopropyl-2-(2-(2,6-difluorophenyl)pyrimidin-5-ylamino)benzoic acid]	45 IU/I	98 IU/I	0.07 mg/dL	32 ± 8%	14 nM	
Cc1ccc(Nc2cnc(-c3ccccc3)c(C)c2)c(C(=O)O)c1 [Compound 60, 5-Methyl-2-(5-methyl-6-phenylpyridin-3-ylamino)benzoic acid]	70 IU/I	131 IU/I	0.09 mg/dL		53 nM	
Cc1ccc(Nc2cnc(-c3ccccc3Cl)c(C)c2)c(C(=O)O)c1 [Compound 71, 2-(6-(2-Chlorophenyl)-5-methylpyridin-3-ylamino)-5-methylbenzoic acid]	72 IU/I	95 IU/I	0.05 mg/dL		14 nM	
Cc1ccc(Nc2ccc(-c3ccccc3Cl)nc2)c(C(=O)O)c1 [Compound 85, 2-(6-(2-Chlorophenyl)pyridin-3-ylamino)-5-methylbenzoic acid]	43 IU/I	83 IU/I	0.13 mg/dL		32 nM	
Cc1ccc(Nc2cnc(-c3ccccc3F)c(C)c2)c(C(=O)O)c1 [Compound 97, 2-(6-(2-Fluorophenyl)-5-methylpyridin-3-ylamino)-5-methylbenzoic acid]	55 IU/I	92 IU/I	0.11 mg/dL		5 nM	
COc1cccc(-c2ncc(Nc3ccc(C4CC4)cc3C(=O)O)cc2C(F)(F)F)c1 [Compound 107, 5-Cyclopropyl-2-(6-(3-methoxyphenyl)-5-(trifluoromethyl)pyridin-3-ylamino)benzoic acid]					7 nM	
O=C(O)c1cc(Cl)ccc1Nc1ccc(-c2ccccc2Cl)nc1 [Compound 110, 5-Chloro-2-(6-(2-chlorophenyl)pyridin-3-ylamino)benzoic acid]					145 nM	
O=C(O)c1cc(C2CC2)ccc1Nc1ccc(-c2ccccc2Cl)nc1 [Compound 112, 2-(6-(2-Chlorophenyl)pyridin-3-ylamino)-5-cyclopropylbenzoic acid]					4 nM	
Cc1ccc(Nc2ccc(-c3ccncc3F)nc2)c(C(=O)O)c1 [Compound 116, 2-(3′-Fluoro-2,4′-bipyridin-5-ylamino)-5-methylbenzoic acid]					90 nM	
Cc1ccc(Nc2ccc(-c3c(F)cccc3F)nc2)c(C(=O)O)c1 [Compound 119, 2-(6-(2,6-Difluorophenyl)pyridin-3-ylamino)-5-methylbenzoic acid]	69 IU/I	96 IU/I	0.08 mg/dL		19 nM	
O=C(O)c1cc(C2CC2)ccc1Nc1cnc(-c2ccccc2Cl)nc1 [Compound 121, 2-(2-(2-Chlorophenyl)pyrimidin-5-ylamino)-5-cyclopropylbenzoic acid]	75 IU/I	105 IU/I	0.05 mg/dL		3 nM	
Cc1ccc(Nc2cnc(-c3ccccc3Cl)nc2)c(C(=O)O)c1 [Compound 123, 2-(2-(2-Chlorophenyl)pyrimidin-5-ylamino)-5-methylbenzoic acid]	89 IU/I	113 IU/I	0.06 mg/dL		57 nM	
Cc1ccc(Nc2cnc(-c3cccc(C(=O)N4CCCC4)c3)c(C)c2)c(C(=O)O)c1 [Compound 125, 5-Methyl-2-(5-methyl-6-(3-(pyrrolidine-1-carbonyl)phenyl)pyridin-3-ylamino)benzoic acid]					9 nM	
Cc1ccc(Nc2cnc(-c3cccc(C(=O)NC4CC4)c3)c(C)c2)c(C(=O)O)c1 [Compound 126, 2-(6-(3-(Cyclopropylcarbamoyl)phenyl)-5-methylpyridin-3-ylamino)-5-methylbenzoic acid]					12 nM	
O=C(O)c1cc(C2CC2)ccc1Nc1cnc(-c2ccccc2F)nc1 [Compound 127, 5-Cyclopropyl-2-(2-(2-fluorophenyl)pyrimidin-5-ylamino)benzoic acid]	56 IU/I	72 IU/I	0.07 mg/dL		10 nM	
O=C(O)c1cc(C2CC2)ccc1Nc1cnc(-c2ccccc2C(F)(F)F)nc1 [Compound 128, 2-(2-(2-trifluoromethylphenyl)pyrimidin-5-ylamino)-5-cyclopropylbenzoic acid]					9 nM	
Cc1ccccc1-c1ncc(Nc2ccc(C3CC3)cc2C(=O)O)cn1 [Compound 129, 2-(2-o-tolylpyrimidin-5-ylamino)-5-cyclopropylbenzoic acid]					12 nM	
O=C(O)c1cc(C2CC2)ccc1Nc1cnc(-c2cc(F)ccc2F)nc1 [Compound 131, 2-(2-(2,5-difluorophenyl)pyrimidin-5-ylamino)-5-cyclopropylbenzoic acid]					38 nM	
O=C(O)c1cc(C2CC2)ccc1Nc1cnc(-c2cc(OC(F)(F)F)ccc2F)nc1 [Compound 135, 2-(2-(2-fluoro-5-trifluoromethoxyphenyl)pyrimidin-5-ylamino)-5-cyclopropylbenzoic acid]					21 nM	
O=C(O)c1cc(C2CC2)ccc1Nc1ccc(-c2ccccc2F)nc1 [Compound 138, 2-(6-(2-fluorophenyl)pyridin-3-ylamino)-5-cyclopropylbenzoic acid]					8 nM	
Cc1ccc(Nc2ccc(-c3ccc(F)cc3F)nc2)c(C(=O)O)c1 [Compound 141, 2-(6-(2,4-difluorophenyl)pyridin-3-ylamino)-5-methylbenzoic acid]					146 nM	
Cc1ccc(Nc2ccc(-c3c(F)ccc(F)c3F)nc2)c(C(=O)O)c1 [Compound 144, 2-(6-(2,3,6-trifluorophenyl)pyridin-3-ylamino)-5-methylbenzoic acid]					77 nM	
COc1ccc(F)cc1-c1ncc(Nc2ccc(C)cc2C(=O)O)cc1C [Compound 148, 2-(6-(5-fluoro-2-methoxyphenyl)-5-methylpyridin-3-ylamino)-5-methylbenzoic acid]					46 nM	
CN(Cc1cnc2nc(N)nc(N)c2n1)c1ccc(C(=O)N[C@@H](CCC(=O)O)C(=O)O)cc1 [MTX, Methotrexate]				33 ± 9%		
C/C(O)=C(\C#N)C(=O)Nc1ccc(C(F)(F)F)cc1 [Teriflunomide, reference compound]	440 IU/I	655 IU/I	0.46 mg/dL			dramatic increase; also recorded: drastic increase
